Assay results published in BindingDB's records for doi:10.1016/j.chembiol.2010.01.008 (University of Washington, 2010).
Several values for one entry are separate records, joined by “and”; a condition that tells them apart may be missing. Identical values can stand only once.

How the values were obtained:
Conditions in all cases: pH 7.5
[1] = target: Proto-oncogene tyrosine-protein kinase Src (Gallus gallus, UniProt P00523); experiment: In Vitro Activity Assay
Source text: (§1) In vitro activity assay using various kinases.

[2] = target: Tyrosine-protein kinase Lck (Homo sapiens, UniProt P06239); experiment: In Vitro Activity Assay
Chain of Tyrosine-protein kinase Lck (P06239 whole entry): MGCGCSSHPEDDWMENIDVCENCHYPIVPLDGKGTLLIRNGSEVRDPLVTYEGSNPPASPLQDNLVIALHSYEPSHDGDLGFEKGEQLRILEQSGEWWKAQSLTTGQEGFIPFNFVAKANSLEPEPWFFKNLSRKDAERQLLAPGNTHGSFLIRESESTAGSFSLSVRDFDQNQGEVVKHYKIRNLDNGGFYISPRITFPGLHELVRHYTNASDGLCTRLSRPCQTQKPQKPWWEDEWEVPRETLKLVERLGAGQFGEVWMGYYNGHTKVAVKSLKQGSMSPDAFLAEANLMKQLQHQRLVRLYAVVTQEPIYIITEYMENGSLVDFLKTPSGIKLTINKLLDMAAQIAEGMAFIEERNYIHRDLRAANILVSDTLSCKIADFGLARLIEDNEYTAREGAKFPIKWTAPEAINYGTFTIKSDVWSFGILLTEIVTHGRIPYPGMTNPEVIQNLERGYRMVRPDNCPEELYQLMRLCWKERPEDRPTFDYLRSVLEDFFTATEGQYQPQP
Source text: as §1

[3] = target: Dual specificity protein kinase CLK1 (Homo sapiens, UniProt P49759); experiment: In Vitro Activity Assay
Chain of Dual specificity protein kinase CLK1 (P49759 whole entry): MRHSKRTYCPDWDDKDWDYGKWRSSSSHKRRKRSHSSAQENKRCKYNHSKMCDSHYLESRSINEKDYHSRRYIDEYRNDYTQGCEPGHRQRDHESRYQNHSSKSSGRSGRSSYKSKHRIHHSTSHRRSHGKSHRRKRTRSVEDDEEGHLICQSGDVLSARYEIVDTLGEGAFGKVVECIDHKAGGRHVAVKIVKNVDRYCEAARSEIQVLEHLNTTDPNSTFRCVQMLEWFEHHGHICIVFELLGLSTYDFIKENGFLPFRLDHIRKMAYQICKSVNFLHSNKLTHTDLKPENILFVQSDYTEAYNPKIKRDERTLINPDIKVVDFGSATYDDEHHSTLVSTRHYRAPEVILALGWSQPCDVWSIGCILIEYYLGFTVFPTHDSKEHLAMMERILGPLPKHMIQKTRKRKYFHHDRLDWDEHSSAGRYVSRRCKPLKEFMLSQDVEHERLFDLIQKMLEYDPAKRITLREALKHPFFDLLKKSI
Source text: as §1

[4] = target: Mitogen-activated protein kinase 14 (Homo sapiens, UniProt Q16539); experiment: In Vitro Activity Assay
Chain of Mitogen-activated protein kinase 14 (Q16539 whole entry): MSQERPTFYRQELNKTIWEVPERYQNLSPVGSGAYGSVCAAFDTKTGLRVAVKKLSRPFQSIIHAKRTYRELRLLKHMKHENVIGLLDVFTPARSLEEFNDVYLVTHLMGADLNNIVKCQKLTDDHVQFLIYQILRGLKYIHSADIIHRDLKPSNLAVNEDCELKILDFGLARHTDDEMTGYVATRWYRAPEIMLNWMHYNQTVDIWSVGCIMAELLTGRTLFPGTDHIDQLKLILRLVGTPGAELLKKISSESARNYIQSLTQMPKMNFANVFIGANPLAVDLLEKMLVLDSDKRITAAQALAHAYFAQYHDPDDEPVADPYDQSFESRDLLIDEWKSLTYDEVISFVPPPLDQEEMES
Source text: as §1

[5] = target: Mitogen-activated protein kinase 1 (Homo sapiens, UniProt P28482); experiment: In Vitro Activity Assay
Source text: as §1

[6] = target: cAMP-dependent protein kinase catalytic subunit alpha (Homo sapiens, UniProt P17612); experiment: In Vitro Activity Assay
Source text: as §1

[7] = target: T1, Interleukin-1 receptor-associated kinase 4 (Homo sapiens, UniProt Q9NWZ3); experiment: In Vitro Activity Assay
T1 sequence (Q9NWZ3 whole entry): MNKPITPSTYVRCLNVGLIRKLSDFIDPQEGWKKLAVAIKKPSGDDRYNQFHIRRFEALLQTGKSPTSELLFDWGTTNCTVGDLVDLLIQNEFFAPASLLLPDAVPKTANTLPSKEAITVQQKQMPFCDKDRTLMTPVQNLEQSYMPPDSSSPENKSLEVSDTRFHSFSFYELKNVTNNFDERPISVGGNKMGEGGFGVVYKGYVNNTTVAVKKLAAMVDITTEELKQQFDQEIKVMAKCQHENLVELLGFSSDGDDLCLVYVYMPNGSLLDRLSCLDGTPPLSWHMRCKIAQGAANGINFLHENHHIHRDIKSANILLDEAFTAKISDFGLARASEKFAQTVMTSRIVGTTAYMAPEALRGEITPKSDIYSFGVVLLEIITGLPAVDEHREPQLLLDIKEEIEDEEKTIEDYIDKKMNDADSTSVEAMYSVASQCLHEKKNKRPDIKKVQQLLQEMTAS
Source text: as §1

[8] = target: Tyrosine-protein kinase CSK (Homo sapiens, UniProt P41240); experiment: In Vitro Activity Assay
Chain of Tyrosine-protein kinase CSK (P41240 whole entry): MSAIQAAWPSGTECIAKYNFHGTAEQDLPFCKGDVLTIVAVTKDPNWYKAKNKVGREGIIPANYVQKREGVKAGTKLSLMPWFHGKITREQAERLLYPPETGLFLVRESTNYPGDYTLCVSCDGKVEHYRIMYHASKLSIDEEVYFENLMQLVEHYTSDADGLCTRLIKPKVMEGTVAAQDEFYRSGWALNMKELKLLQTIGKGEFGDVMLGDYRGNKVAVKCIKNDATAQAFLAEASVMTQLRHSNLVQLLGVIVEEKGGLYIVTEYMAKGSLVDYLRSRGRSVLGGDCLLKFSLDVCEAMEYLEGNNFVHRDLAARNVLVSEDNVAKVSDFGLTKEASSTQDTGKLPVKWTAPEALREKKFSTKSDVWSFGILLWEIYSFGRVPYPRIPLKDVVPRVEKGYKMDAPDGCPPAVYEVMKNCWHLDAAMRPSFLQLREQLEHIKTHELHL
Source text: as §1

[9] = target: Serine/threonine-protein kinase PAK 4 (Homo sapiens, UniProt O96013); experiment: In Vitro Activity Assay
Chain of Serine/threonine-protein kinase PAK 4 (O96013 whole entry): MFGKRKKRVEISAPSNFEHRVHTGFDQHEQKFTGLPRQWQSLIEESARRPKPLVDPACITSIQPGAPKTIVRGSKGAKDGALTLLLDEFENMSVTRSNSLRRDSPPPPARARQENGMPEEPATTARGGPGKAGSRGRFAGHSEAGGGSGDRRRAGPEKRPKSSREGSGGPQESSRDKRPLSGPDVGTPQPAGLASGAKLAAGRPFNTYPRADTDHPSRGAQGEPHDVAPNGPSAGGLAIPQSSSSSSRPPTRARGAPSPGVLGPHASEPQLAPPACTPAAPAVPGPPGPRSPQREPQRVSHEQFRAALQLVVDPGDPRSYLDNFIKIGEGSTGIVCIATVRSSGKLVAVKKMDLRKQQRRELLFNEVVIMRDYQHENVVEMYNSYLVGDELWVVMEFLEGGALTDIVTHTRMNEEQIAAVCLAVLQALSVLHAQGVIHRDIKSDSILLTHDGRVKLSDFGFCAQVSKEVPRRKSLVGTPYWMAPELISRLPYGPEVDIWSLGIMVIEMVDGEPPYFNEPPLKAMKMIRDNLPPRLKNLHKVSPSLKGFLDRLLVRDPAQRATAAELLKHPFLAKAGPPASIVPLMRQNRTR
Source text: as §1

[10] = target: Tyrosine-protein kinase HCK (Homo sapiens, UniProt P08631); experiment: In Vitro Activity Assay
Chain of Tyrosine-protein kinase HCK (P08631 whole entry): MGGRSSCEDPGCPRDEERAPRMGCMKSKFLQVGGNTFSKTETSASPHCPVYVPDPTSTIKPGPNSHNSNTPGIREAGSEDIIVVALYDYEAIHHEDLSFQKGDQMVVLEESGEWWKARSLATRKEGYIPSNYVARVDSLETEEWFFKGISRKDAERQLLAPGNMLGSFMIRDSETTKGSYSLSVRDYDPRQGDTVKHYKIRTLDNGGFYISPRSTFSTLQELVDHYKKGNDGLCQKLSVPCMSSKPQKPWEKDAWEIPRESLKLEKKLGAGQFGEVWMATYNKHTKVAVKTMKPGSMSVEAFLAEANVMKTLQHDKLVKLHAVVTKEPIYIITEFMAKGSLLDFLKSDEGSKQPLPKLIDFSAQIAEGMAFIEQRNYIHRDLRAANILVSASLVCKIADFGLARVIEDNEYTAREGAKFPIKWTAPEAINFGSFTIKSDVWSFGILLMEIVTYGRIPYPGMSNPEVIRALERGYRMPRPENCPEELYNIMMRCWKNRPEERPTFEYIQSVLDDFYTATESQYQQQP
Source text: as §1

[11] = target: Tyrosine-protein kinase ABL1 (Homo sapiens, UniProt P00519); experiment: In Vitro Activity Assay
Chain of Tyrosine-protein kinase ABL1 (P00519 whole entry): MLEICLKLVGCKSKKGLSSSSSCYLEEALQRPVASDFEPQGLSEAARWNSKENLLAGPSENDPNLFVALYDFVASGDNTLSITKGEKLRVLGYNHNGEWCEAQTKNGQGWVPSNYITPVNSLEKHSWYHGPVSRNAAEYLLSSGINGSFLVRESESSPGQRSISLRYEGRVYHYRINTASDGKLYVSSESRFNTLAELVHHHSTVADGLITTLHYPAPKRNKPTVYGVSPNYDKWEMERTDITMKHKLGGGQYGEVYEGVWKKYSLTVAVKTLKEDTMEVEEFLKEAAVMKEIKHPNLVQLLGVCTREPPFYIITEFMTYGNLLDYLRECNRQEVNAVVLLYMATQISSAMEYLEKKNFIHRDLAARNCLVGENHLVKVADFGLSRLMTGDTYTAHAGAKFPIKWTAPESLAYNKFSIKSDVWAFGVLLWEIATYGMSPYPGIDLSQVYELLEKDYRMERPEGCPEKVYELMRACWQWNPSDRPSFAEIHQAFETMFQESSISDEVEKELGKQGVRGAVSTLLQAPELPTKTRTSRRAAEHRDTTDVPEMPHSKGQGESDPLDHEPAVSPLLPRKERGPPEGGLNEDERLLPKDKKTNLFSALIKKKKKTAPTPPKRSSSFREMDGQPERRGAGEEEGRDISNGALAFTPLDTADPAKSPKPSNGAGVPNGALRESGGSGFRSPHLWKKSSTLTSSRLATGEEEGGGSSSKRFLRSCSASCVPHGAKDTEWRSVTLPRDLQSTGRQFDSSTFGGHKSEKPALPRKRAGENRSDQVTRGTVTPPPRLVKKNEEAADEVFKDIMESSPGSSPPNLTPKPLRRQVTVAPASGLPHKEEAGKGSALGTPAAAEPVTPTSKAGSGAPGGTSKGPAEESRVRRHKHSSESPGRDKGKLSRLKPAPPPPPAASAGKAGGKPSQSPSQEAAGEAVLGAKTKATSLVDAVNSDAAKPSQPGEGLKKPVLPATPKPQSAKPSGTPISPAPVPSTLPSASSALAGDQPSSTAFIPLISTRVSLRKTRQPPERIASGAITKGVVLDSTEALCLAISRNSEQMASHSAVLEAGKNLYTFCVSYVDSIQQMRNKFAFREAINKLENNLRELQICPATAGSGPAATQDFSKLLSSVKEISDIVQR
Source text: as §1

[12] = target: T2, Mitogen-activated protein kinase kinase kinase 5 (Homo sapiens, UniProt Q99683); experiment: In Vitro Activity Assay
T2 sequence (Q99683 whole entry): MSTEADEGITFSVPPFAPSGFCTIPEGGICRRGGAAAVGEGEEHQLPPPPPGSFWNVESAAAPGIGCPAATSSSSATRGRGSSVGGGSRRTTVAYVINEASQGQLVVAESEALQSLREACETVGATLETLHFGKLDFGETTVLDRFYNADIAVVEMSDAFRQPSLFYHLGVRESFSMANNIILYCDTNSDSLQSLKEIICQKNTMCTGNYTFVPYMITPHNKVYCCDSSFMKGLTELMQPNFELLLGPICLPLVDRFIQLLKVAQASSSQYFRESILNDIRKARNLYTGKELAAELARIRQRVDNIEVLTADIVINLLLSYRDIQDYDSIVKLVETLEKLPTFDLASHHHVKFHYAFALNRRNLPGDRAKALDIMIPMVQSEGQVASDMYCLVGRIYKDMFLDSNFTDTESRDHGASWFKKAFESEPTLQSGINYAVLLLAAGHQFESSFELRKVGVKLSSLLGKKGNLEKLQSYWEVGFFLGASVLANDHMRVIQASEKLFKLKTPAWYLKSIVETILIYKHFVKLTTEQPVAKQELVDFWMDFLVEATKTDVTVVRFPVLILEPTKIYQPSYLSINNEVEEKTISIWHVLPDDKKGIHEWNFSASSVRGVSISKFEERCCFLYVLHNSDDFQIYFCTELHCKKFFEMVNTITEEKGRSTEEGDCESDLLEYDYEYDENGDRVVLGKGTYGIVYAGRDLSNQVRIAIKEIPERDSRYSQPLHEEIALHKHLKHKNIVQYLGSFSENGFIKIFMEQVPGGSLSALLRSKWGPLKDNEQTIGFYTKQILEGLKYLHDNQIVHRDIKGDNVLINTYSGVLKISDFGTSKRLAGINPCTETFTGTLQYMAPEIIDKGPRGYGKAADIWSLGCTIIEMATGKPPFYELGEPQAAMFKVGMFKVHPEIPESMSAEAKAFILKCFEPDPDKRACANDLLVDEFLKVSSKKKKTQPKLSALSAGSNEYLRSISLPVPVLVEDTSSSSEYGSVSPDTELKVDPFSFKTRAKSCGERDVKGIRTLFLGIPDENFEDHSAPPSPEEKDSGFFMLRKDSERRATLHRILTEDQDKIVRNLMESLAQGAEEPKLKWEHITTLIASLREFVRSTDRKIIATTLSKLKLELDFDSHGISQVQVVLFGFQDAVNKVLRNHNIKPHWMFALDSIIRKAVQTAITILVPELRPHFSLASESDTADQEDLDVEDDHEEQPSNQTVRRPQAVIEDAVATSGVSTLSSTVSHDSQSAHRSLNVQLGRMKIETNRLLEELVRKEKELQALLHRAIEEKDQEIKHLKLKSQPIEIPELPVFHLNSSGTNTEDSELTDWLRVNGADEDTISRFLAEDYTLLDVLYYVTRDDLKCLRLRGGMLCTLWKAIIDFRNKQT
Source text: as §1

[13] = target: Serine/threonine-protein kinase PAK 5 (Homo sapiens) (UniProt Q9P286); experiment: In vitro activity assay using various kinases.
Chain of Serine/threonine-protein kinase PAK 5 (Homo sapiens) (Q9P286 whole entry, looked up): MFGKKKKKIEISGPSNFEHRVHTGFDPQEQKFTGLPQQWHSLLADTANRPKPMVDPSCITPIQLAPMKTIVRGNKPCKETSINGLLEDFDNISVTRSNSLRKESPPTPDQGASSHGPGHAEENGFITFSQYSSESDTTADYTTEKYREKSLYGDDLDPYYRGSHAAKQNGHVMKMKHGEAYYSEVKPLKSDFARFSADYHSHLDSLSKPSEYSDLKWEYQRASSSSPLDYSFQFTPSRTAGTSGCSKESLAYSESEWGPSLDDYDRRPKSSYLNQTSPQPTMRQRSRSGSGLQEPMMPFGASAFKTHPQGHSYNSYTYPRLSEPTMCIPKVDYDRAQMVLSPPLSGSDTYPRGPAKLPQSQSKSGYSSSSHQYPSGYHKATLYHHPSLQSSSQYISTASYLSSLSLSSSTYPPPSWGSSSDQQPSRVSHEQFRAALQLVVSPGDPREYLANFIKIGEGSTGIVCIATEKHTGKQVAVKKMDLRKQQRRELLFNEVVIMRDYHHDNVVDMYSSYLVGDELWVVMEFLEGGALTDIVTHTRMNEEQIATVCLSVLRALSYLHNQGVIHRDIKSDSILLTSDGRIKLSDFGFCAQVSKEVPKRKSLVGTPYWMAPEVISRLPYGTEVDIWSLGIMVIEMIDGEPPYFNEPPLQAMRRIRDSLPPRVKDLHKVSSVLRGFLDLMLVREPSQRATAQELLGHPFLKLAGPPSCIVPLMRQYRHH

[14] = target: T3, Ephrin type-A receptor 3 [1-975] (Homo sapiens, UniProt P29320); experiment: In Vitro Activity Assay
T3 construct: 1-975
T3 sequence (P29320 whole entry): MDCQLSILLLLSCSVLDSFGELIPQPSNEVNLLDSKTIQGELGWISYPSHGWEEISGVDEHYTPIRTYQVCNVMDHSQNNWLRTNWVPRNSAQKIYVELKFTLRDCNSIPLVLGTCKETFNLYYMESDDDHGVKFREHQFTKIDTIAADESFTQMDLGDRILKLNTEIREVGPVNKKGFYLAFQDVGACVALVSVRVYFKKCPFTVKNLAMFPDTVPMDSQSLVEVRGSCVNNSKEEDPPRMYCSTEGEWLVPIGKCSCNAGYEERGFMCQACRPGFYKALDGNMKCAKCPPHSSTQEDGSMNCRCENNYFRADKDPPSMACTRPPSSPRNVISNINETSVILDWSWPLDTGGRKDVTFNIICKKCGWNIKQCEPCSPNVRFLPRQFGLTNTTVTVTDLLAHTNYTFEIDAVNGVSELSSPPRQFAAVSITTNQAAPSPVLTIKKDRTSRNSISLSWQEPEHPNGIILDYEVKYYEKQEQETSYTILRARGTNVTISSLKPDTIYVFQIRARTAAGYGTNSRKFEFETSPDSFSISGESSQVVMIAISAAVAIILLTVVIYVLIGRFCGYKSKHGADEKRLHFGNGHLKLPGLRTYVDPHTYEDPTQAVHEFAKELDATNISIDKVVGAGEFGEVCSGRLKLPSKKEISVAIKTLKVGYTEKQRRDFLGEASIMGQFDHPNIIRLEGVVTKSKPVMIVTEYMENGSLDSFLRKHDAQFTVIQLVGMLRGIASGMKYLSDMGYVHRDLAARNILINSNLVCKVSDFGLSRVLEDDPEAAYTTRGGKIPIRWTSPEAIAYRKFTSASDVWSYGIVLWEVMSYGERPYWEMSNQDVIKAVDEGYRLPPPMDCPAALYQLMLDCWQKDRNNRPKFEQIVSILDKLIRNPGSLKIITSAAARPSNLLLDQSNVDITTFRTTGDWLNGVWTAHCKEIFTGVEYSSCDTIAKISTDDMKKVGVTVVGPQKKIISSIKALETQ
Source text: as §1

[15] = target: T4, Tyrosine-protein kinase ABL1 [1-999,E255V] (Homo sapiens, UniProt P00519, E255V); experiment: In Vitro Activity Assay
T4 construct: 1-999
Source text: as §1

[16] = target: T5, Tyrosine-protein kinase ABL1 [1-999,Y253H] (Homo sapiens, UniProt P00519, Y253H); experiment: In Vitro Activity Assay
T5 construct: 1-999
Source text: as §1

SMILES | IC50 [1] | IC50 [2] | IC50 [3] | IC50 [4] | IC50 [5] | IC50 [6] | IC50 [7] | IC50 [8] | IC50 [9] | IC50 [10] | IC50 [11] | IC50 [12] | IC50 [13] | further results
Cc1ccc(NC(=O)c2cccc(C(F)(F)F)c2)cc1Nc1ncccc1-c1ncnc(Nc2ccc(OCCNC(=O)COCCOCCOCCOCCN)cc2)n1 [Amine compound, 12a] | 3.3 nM | < 10 nM | > 10000 nM | < 13 nM | > 10000 nM | > 10000 nM | > 10000 nM | 16.3 nM | > 10000 nM | 9.6 nM | 6.6 nM | > 10000 nM | > 10000 nM | –
Cc1ccc(NC(=O)c2cccc(C(F)(F)F)c2)cc1Nc1ncccc1-c1ncnc(Nc2ccc(OCCNC(=O)CCCCNC(=O)CCC3=[N+]4B(F)n5c(C)cc(C)c5C=C4C=C3)cc2)n1 [BODIPY-labeled probe, 4a] | 25.4 nM | – | – | 25.5 nM | – | – | – | – | – | – | – | – | – | Kd [1]: 13 nM and 11 nM; Kd [2]: 20 nM; Kd [3]: > 1000 nM; Kd [14]: 27 nM; Kd [4]: 35 nM; Kd [15]: 45 nM; Kd [8]: 17 nM; Kd [9]: > 1000 nM; Kd [10]: 8.7 nM; Kd [11]: 9.9 nM; Kd [12]: > 1000 nM; Kd [16]: 9.4 nM; Kd [13]: > 1000 nM
Cc1ccc(NC(=O)c2cccc(C(F)(F)F)c2)cc1Nc1ncccc1-c1cc(Nc2ccc(OCCNC(=O)COCCOCCOCCOCCN)cc2)ncn1 [Amine compound, 13a] | 5.7 nM | < 10 nM | > 10000 nM | < 13 nM | > 10000 nM | > 10000 nM | > 10000 nM | 140 nM | > 10000 nM | 6.3 nM | 6.6 nM | > 10000 nM | > 10000 nM | –
